Values after ≈ are worked out from the molar mass of the structure shown. Read-outs that look alike come from different tables or passages of the source.
Assays:
Assay type in all cases: cell-based
[1] = system: SK-OV-3 (ATCC HTB 77): human ovarian adenocarcinoma; assay: In vitro antitumor activity, MTT assay, SK-OV-3; conditions: Homo sapiens
Protocol: (§1) In vitro antitumor activity against human tumor cell lines
(§2) In vitro antitumor activity of the compounds according to the present invention was determined by MTT assay method against the following human tumor cell lines:
SK-OV-3 (ATCC HTB 77): human ovarian adenocarcinoma
(§3) In this test, the known antineoplastic compounds, Doxorubicin and Sulofenur, were used as the comparative agents.
(§4) Each of the tumor cells was cultured in RPMI 1640 media containing 10% fetal bovine serum, 100 IU/ml penicillin and 100 μg/ml streptomycin, and then periodically subcultured once or twice per week in trypsin-EDTA solution containing 0.05% trypsin and 0.53mM EDTA.4Na. The human tumor cell line thus obtained (10,000cells/100 μl) was plated on 96-well microplate and then cultured for 24 hrs at 37° C. in a 5% CO2 incubator. Test compound was dissolved in DMSO, sterilized with 0.22 μm PVDF filter, and then serially 5-fold diluted from 40 μg/ml to 0.00256μg/ml. 100 μl of the sample solution thus prepared and RPMI 1640 medium only (control group) were added to 96-well microplate containing the human tumor cell, respectively. The final concentration of the test compound was in the range from 20 μg/ml to 0.00128 μg/ml and the concentration of DMSO was below 0.5%. The cells were cultured for 48 hrs at 37° C. in a 5% CO2 incubator. MTT(3-(4,5-Dimethylthiazole-2-yl)-e,5-diphenyltetrazoliumbromide) was dissolved in physiological saline in a concentration of 2 mg/ml and the resulting solution was filtered through 0.22 μm PTFE filter. 25 μl of MTT solution thus prepared was added to each well of 96-well microplate and incubated for additional 4 hrs at 37° C. in a 5% CO2 incubator. Then, the content of microplate was centrifuged at 1000 rpm for 10 min, and supernatant was removed by flicking. The formazan formed from MTT by mitochondrial succinate dehydrogenase was dissolved in 100 μl of DMSO. The absorbance of each well was measured at 540nm by micro ELISA reader and the cytotoxicity was calculated by dividing the absorbance of test group by the absorbance of control group. After the calculated cytotoxicity (%) was plotted, the concentration of 50% tumor growth inhibition concentration (IC50) was estimated by Linear-Regression method.

[2] = system: A549 (ATCC CCL 185): human lung carcinoma; assay: In vitro antitumor activity, MTT assay, A549; conditions: Homo sapiens, A549, 48 h
Protocol: as §1, §2
A549 (ATCC CCL 185): human lung carcinoma
as §3, §4

[3] = system: Colo205 (ATCC CCL 222): human colon adenocarcinoma; assay: In vitro antitumor activity, MTT assay, Colo205; conditions: Homo sapiens
Protocol: as §1, §2
Colo205 (ATCC CCL 222): human colon adenocarcinoma
as §3, §4

[4] = system: K562 (ATCC CCL 243): human chronic myelogenous leukemia; assay: In vitro antitumor activity, MTT assay, K562; conditions: Homo sapiens, K562, 48 h
Protocol: as §1, §2
K562 (ATCC CCL 243): human chronic myelogenous leukemia
as §3, §4

[5] = COLO 205, Table 1, 48 hrs, read-out: IC50 (Colo205)
[6] = COLO 205, Table 3, 48 hrs, read-out: IC50 (Col205)

Compound	IC50 ([4]; Table 3, read-out: IC50 (K562)) [µg/mL]	IC50 ([1]; SK-OV-3, Table 3, 48 hrs) [µg/mL]	IC50 ([2]; Table 3) [µg/mL]	IC50 ([4]; Table 4, read-out: IC50 (K562)) [µg/mL]	IC50 ([1]; SK-OV-3, Table 4, 48 hrs) [µg/mL]	IC50 ([2]; Table 4) [µg/mL]	further results
CCCNC(=O)N1CCc2cc(S(=O)(=O)n3cc(-c4ccccc4)[nH]c3=O)ccc21 [Example 4, 4-phenyl-1-(N-propylcarbamoylindoline-5-sulfonyl)-2-imidazolone]	–	–	–	–	–	–	IC50 ([1]; SK-OV-3, Table 1, 48 hrs): < 0.00128 µg/mL; IC50 ([2]; Table 1): 0.052 µg/mL (≈ 0.122 µM); IC50 [3, 5]: < 0.00128 µg/mL
CC(C)NC(=O)N1CCc2cc(S(=O)(=O)n3cc(-c4ccccc4)[nH]c3=O)ccc21 [Example 6, 4-phenyl-1-(N-isopropylcarbamoylindoline-5-sulfonyl)-2-imidazolone]	–	–	–	–	–	–	IC50 ([1]; SK-OV-3, Table 1, 48 hrs): < 0.00128 µg/mL; IC50 ([2]; Table 1): < 0.00128 µg/mL; IC50 [3, 5]: < 0.00128 µg/mL
CCCNC(=O)N1CCc2cc(S(=O)(=O)N3CC(c4ccccc4)NC3=O)ccc21 (centres unmarked) [Example 30, 4-phenyl-1-(N-propylcarbamoylindoline-5-sulfonyl)-4,5-dihydro-2-imidazolone]	0.488 (≈ 1.14 µM)	0.261 (≈ 0.609 µM)	0.103 (≈ 0.24 µM)	–	–	–	IC50 [3, 6]: 0.254 µg/mL (≈ 0.593 µM)
CC(C)NC(=O)N1CCc2cc(S(=O)(=O)N3CC(c4ccccc4)NC3=O)ccc21 (centres unmarked) [Example 31, 4-phenyl-1-(N-isopropylcarbamoylindoline-5-sulfonyl)-4,5-dihydro-2-imidazolone]	0.439 (≈ 1.02 µM)	0.28 (≈ 0.653 µM)	0.073 (≈ 0.17 µM)	–	–	–	IC50 [3, 6]: 0.258 µg/mL (≈ 0.602 µM)
C=CCNC(=O)N1CCc2cc(S(=O)(=O)N3CC(c4ccccc4)NC3=O)ccc21 (centres unmarked) [Example 32, 4-phenyl-1-(N-allylcarbamoylindoline-5-sulfonyl)-4,5-dihydro-2-imidazolone]	–	0.685 (≈ 1.61 µM)	0.042 (≈ 0.0985 µM)	–	–	–	IC50 [3, 6]: 7.1 µg/mL (≈ 16.6 µM)
CCCNC(=S)N1CCc2cc(S(=O)(=O)N3CC(c4ccccc4)NC3=O)ccc21 (centres unmarked) [Example 40, 4-phenyl-1-(N-propylthiocarbamoylindoline-5-sulfonyl)-4,5-dihydro-2-imidazolone]	0.337 (≈ 0.758 µM)	3.66 (≈ 8.24 µM)	0.245 (≈ 0.551 µM)	–	–	–	–
COc1ccc(NC(=S)N2CCc3cc(S(=O)(=O)N4CC(c5ccccc5)NC4=O)ccc32)cc1 (centres unmarked) [Example 43, 4-phenyl-1-[N-(4-methoxyphenyl)thiocarbamoylindoline-5-sulfonyl]-4,5-dihydro-2-imidazolone]	1.28 (≈ 2.52 µM)	1.03 (≈ 2.03 µM)	1.27 (≈ 2.49 µM)	–	–	–	–
O=C(c1ccccc1)N1CCc2cc(S(=O)(=O)N3CC(c4ccccc4)NC3=O)ccc21 (centres unmarked) [Example 47, 4-phenyl-1-(N-benzoylindoline-5-sulfonyl)-4,5-dihydro-2-imidazolone]	–	–	–	1.84 (≈ 4.12 µM)	0.26 (≈ 0.581 µM)	0.196 (≈ 0.438 µM)	–
Cc1ccc(C(=O)N2CCc3cc(S(=O)(=O)N4CC(c5ccccc5)NC4=O)ccc32)cc1 (centres unmarked) [Example 48, 4-phenyl-1-[N-(4-methylbenzoyl)indoline-5-sulfonyl]-4,5-dihydro-2-imidazolone]	–	–	–	2.4 (≈ 5.2 µM)	> 20	1.74 (≈ 3.76 µM)	–
O=C(c1ccccc1O)N1CCc2cc(S(=O)(=O)N3CC(c4ccccc4)NC3=O)ccc21 (centres unmarked) [Example 49, 4-phenyl-1-[N-(2-hydroxybenzoyl)indoline-5-sulfonyl]-4,5-dihydro-2-imidazolone]	–	–	–	5.71 (≈ 12.3 µM)	0.591 (≈ 1.28 µM)	0.638 (≈ 1.38 µM)	–
COc1ccc(C(=O)N2CCc3cc(S(=O)(=O)N4CC(c5ccccc5)NC4=O)ccc32)cc1 (centres unmarked) [Example 50, 4-phenyl-1-[N-(4-methoxybenzoyl)indoline-5-sulfonyl]-4,5-dihydro-2-imidazolone]	–	–	–	2.19 (≈ 4.58 µM)	1.37 (≈ 2.87 µM)	1.56 (≈ 3.28 µM)	–
COc1ccc(C(=O)N2CCc3cc(S(=O)(=O)N4CC(c5ccccc5)NC4=O)ccc32)cc1OC (centres unmarked) [Example 51, 4-phenyl-1-[N-(3,4-dimethoxybenzoyl)indoline-5-sulfonyl]-4,5-dihydro-2-imidazolone]	–	–	–	0.218 (≈ 0.429 µM)	12.1 (≈ 23.9 µM)	1.65 (≈ 3.25 µM)	–
